According to US11976057B2, “MrgX2 antagonists” (GlaxoSmithKline Intellectual Property Development Limited, priority 2020, dated 2024):

Target: T1, human MRGPRX2 (Homo sapiens, UniProt Q96LB1)
T1 sequence (Q96LB1 1-330): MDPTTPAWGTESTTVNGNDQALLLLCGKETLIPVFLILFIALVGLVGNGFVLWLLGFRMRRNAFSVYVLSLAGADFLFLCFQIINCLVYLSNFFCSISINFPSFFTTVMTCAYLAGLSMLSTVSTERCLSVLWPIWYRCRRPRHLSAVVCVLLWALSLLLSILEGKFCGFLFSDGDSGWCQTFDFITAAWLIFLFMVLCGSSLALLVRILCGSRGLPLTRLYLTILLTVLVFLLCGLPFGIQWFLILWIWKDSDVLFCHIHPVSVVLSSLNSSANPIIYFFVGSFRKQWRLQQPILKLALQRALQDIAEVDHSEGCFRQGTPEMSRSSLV
Assay: Ca2+ mobilization assay (FLIPR TETRA): inhibition of Cortistatin-14 mediated MRGPRX2 activation

Structure (SMILES)	IC50 [µM]
COCCNCc1cc(C2CN(C(C)C(=O)Nc3ccc(Oc4ccc(F)cc4)cn3)CCC2(F)F)c[nH]c1=O (centres unmarked) [Example 239, 2-(4,4-difluoro-3-(5-(((2-methoxyethyl)amino)methyl)-6-oxo-1,6-dihydropyridin-3-yl)piperidin-1-yl)-N-(5-(4-fluorophenoxy)pyridin-2-yl)propanamide]	≤ 0.01
C[C@@H](C(=O)Nc1ccc(OCC2CCC2)nn1)N1CCC(F)(F)[C@@H](c2ccc(=O)[nH]c2)C1 [Example 71, (S)-N-(6-(cyclobutyl-methoxy)pyridazin-3-yl)-2-((S)-4,4-difluoro-3-(6-oxo-1,6-dihydropyridin-3-yl)piperidin-1-yl)propanamide]	0.1 to 3.16
CC(C(=O)Nc1ccc(Br)cn1)N1CCC(F)(F)[C@@H](c2ccc(=O)[nH]c2)C1 (stereo partly drawn) [Example 94, N-(5-bromopyridin-2-yl)-2-((S)-4,4-difluoro-3-(6-oxo-1,6-dihydropyridin-3-yl)piperidin-1-yl)propanamide]	0.1 to 3.16
CC(C(=O)Nc1ccc(F)cn1)N1CCC(F)(F)C(c2ccc(=O)n(Cc3ccccn3)c2)C1 (centres unmarked) [Example 196, 2-(4,4-difluoro-3-(6-oxo-1-(pyridin-2-ylmethyl)-1,6-dihydropyridin-3-yl)piperidin-1-yl)-N-(5-fluoropyridin-2-yl)propanamide]	0.01 to 0.1
C[C@@H](C(=O)Nc1ccc(Oc2ccc(Cl)cn2)cn1)N1CCC(F)(F)[C@@H](c2ccc(=O)[nH]c2)C1 [Example 88, (S)-N-(5-((5-chloropyridin-2-yl)oxy)pyridin-2-yl)-2-((S)-4,4-difluoro-3-(6-oxo-1,6-dihydropyridin-3-yl)piperidin-1-yl)propanamide]	0.01 to 0.1
C[C@@H](C(=O)Nc1ccc(Oc2ccc(F)cn2)cn1)N1CCC(F)(F)[C@@H](c2c[nH]c(=O)c(CN)c2)C1 [Example 208, (S)-2-((S)-3-(5-(aminomethyl)-6-oxo-1,6-dihydropyridin-3-yl)-4,4-difluoropiperidin-1-yl)-N-(5-((5-fluoropyridin-2-yl)oxy)pyridin-2-yl)propanamide]	≤ 0.01
CC(C(=O)Nc1ccc(Oc2ccccc2)cn1)N1CCC(F)(F)C(c2c[nH]c(=O)c(CN)c2)C1 (centres unmarked) [Example 202, 2-(3-(5-(aminomethyl)-6-oxo-1,6-dihydropyridin-3-yl)-4,4-difluoropiperidin-1-yl)-N-(5-phenoxypyridin-2-yl)propanamide]	≤ 0.01
CC(Oc1ccc(NC(=O)C(C)N2CCC(F)(F)[C@@H](c3ccc(=O)[nH]c3)C2)nc1)C1CC1 (stereo partly drawn) [Example 31, N-(5-(1-cyclopropyl-ethoxy)pyridin-2-yl)-2-((S)-4,4-difluoro-3-(6-oxo-1,6-dihydropyridin-3-yl)piperidin-1-yl)propanamide]	0.1 to 3.16
C[C@@H](C(=O)Nc1cnc(Oc2ccc(F)cc2F)cn1)N1CCC(F)(F)[C@@H](c2ccc(=O)[nH]c2)C1 [Example 85, (S)-2-((S)-4,4-difluoro-3-(6-oxo-1,6-dihydropyridin-3-yl)piperidin-1-yl)-N-(5-(2,4-difluorophenoxy)pyrazin-2-yl)propanamide]	≤ 0.01
C[C@@H](C(=O)Nc1ccc(OCC2CC2)nn1)N1CCC(F)(F)[C@@H](c2c[nH]c(=O)cn2)C1 [Example 134, (S)-N-(6-(cyclopropylmethoxy)pyridazin-3-yl)-2-((R)-4,4-difluoro-3-(5-oxo-4,5-dihydropyrazin-2-yl)piperidin-1-yl)propanamide]	0.01 to 0.1
C[C@@H](C(=O)Nc1ccc(/C=C/C2CC2)cn1)N1CCC(F)(F)[C@@H](c2ccc(=O)[nH]c2)C1 [Example 10]	0.01 to 0.1
C[C@@H](C(=O)Nc1ccc(Cl)cn1)N1CCC[C@@H](c2c[nH]c(=O)c(CN)c2)C1 (single isomer, unassigned) [Example 175]	3.16 to 31.6
C[C@@H](C(=O)Nc1ccc(Oc2ccc(F)cn2)cn1)[C@H]1CCC(F)(F)[C@@H](c2cc[n+]([O-])cc2)C1 [Example 294, 4-((1R,5S)-2,2-difluoro-5-((R)-1-((5-((5-fluoropyridin-2-yl)oxy)pyridin-2-yl)amino)-1-oxopropan-2-yl)cyclohexyl)pyridine 1-oxide]	≤ 0.01
C[C@@H](C(=O)Nc1ccc(Cl)cn1)N1CCC[C@@H](c2c[nH]c(=O)c(CO)c2)C1 (single isomer, unassigned) [Example 177]	3.16 to 31.6
CC(C(=O)Nc1ccc(OC2CCC2)cn1)N1CCC(F)(F)[C@@H](c2ccc(=O)[nH]c2)C1 (stereo partly drawn) [Example 78, N-(5-cyclobutoxy-pyridin-2-yl)-2-((S)-4,4-difluoro-3-(6-oxo-1,6-dihydropyridin-3-yl)piperidin-1-yl)propanamide]	0.1 to 3.16
CC(C(=O)Nc1ccc(Cc2ncco2)cn1)N1CCC(F)(F)[C@@H](c2ccc(=O)[nH]c2)C1 (stereo partly drawn) [Example 53, 2-((S)-4,4-difluoro-3-(6-oxo-1,6-dihydropyridin-3-yl)piperidin-1-yl)-N-(5-(oxazol-2-ylmethy)pyridin-2-yl)propanamide]	3.16 to 31.6

Structure (SMILES)	IC50 [µM]
CC(C(=O)Nc1ccc(Oc2ccc(F)cc2)cn1)N1CCC(F)(F)C(c2c[nH]c(=O)c(CNCCO)c2)C1 (centres unmarked) [Example 238, 2-(4,4-difluoro-3-(5-(((2-hydroxyethyl)amino)methyl)-6-oxo-1,6-dihydropyridin-3-yl)piperidin-1-yl)-N-(5-(4-fluorophenoxy)pyridin-2-yl)propanamide]	≤ 0.01
C[C@@H](C(=O)Nc1ccc(Oc2ncc(F)cc2F)cn1)[C@H]1CCC[C@@H](c2ccc(=O)[nH]c2)C1 [Example 285, (R)-N-(5-((3,5-difluoropyridin-2-yl)oxy)pyridin-2-yl)-2-((1S,3R)-3-(6-oxo-1,6-dihydropyridin-3-yl)cyclohexyl)propanamide]	≤ 0.01
CC(=O)NCc1cc(C2CN(C(C)C(=O)Nc3ccc(F)cn3)CCC2(F)F)cc[n+]1[O-] (centres unmarked) [Example 263]	0.1 to 3.16
C[C@@H](C(=O)Nc1ccc(OCC2CC2)nn1)N1CCC(F)(F)[C@@H](c2ccc(=O)[nH]n2)C1 [Example 146, (S)-N-(6-(cyclopropylmethoxy)pyridazin-3-yl)-2-((R)-4,4-difluoro-3-(6-oxo-1,6-dihydropyridazin-3-yl)piperidin-1-yl)propanamide]	0.01 to 0.1
C[C@@H](C(=O)Nc1ccc(F)cn1)N1CCC(F)(F)[C@@H](c2cn(CC(F)(F)F)c(=O)cn2)C1 (single isomer, unassigned) [Example 103]	≤ 0.01
C[C@@H](C(=O)Nc1ccc(Oc2ncc(F)cc2F)cn1)N1CCC(F)(F)[C@@H](c2cc[n+]([O-])cc2)C1 [Example 116]	0.01 to 0.1
C[C@@H](C(=O)Nc1ccc(Oc2ccc(F)cc2F)cn1)N1CCC(F)(F)[C@@H](c2cc[n+]([O-])c(CO)c2)C1 [Example 255]	≤ 0.01
CC(C(=O)Nc1ccc(F)cn1)N1CCC(F)(F)C(c2ccc(=O)n(Cc3ccncc3)c2)C1 (centres unmarked) [Example 197, 2-(4,4-difluoro-3-(6-oxo-1-(pyridin-4-ylmethyl)-1,6-dihydropyridin-3-yl)piperidin-1-yl)-N-(5-fluoropyridin-2-yl)propanamide]	0.01 to 0.1
C[C@@H](C(=O)Nc1ccc(Oc2ccccc2)cn1)N1CCC(F)(F)[C@@H](c2ccc(=O)[nH]c2)C1 [Example 6, (S)-2-((S)-4,4-difluoro-3-(6-oxo-1,6-dihydropyridin-3-yl)piperidin-1-yl)-N-(5-phenoxypyridin-2-yl)propanamide]	≤ 0.01
C[C@@H](C(=O)Nc1ccc(F)cn1)N1CCC(F)(F)[C@@H](c2cc[n+]([O-])cc2)C1 [Example 113, 4-((S)-4,4-difluoro-1-((S)-1-((5-fluoropyridin-2-yl)amino)-1-oxopropan-2-yl)piperidin-3-yl)pyridine 1-oxide]	0.1 to 3.16
C[C@@H](C(=O)Nc1ccc(Oc2ccncn2)cn1)N1CCC(F)(F)[C@@H](c2ccc(=O)[nH]c2)C1 [Example 74, (S)-2-((S)-4,4-difluoro-3-(6-oxo-1,6-dihydropyridin-3-yl)piperidin-1-yl)-N-(5-(pyrimidin-4-yloxy)pyridin-2-yl)propanamide]	0.1 to 3.16
CC(C(=O)Nc1ccc(OCC2CC2(F)F)cn1)N1CCC(F)(F)[C@@H](c2ccc(=O)[nH]c2)C1 (stereo partly drawn) [Example 36, 2-((S)-4,4-difluoro-3-(6-oxo-1,6-dihydropyridin-3-yl)piperidin-1-yl)-N-(5-((2,2-difluorocyclo-propyl)methoxy)pyridin-2-yl)propanamide]	0.1 to 3.16
C[C@@H](C(=O)Nc1ccc(Oc2ccccn2)cn1)N1CCC(F)(F)[C@@H](c2cc[n+]([O-])cc2)C1 [Example 126, 4-((S)-4,4-difluoro-1-((S)-1-oxo-1-((5-(pyridin-2-yloxy)pyridin-2-yl)amino)propan-2-yl)piperidin-3-yl)pyridine 1-oxide]	0.01 to 0.1
C[C@@H](C(=O)Nc1ccc(Oc2ncc(F)cc2F)cn1)[C@H]1CCC(F)(F)[C@@H](c2cc[n+]([O-])cc2)C1 [Example 293, 4-((1R,5S)-5-((R)-1-((5-((3,5-difluoropyridin-2-yl)oxy)pyridin-2-yl)amino)-1-oxopropan-2-yl)-2,2-difluorocyclohexyl)pyridine 1-oxide]	≤ 0.01
C[C@@H](C(=O)Nc1ccc(OC2CCCC2)nn1)N1CCC(F)(F)[C@@H](c2ccc(=O)[nH]c2)C1 [Example 101, (S)-N-(6-(cyclopentyloxy)pyridazin-3-yl)-2-((S)-4,4-difluoro-3-(6-oxo-1,6-dihydropyridin-3-yl)piperidin-1-yl)propanamide]	0.01 to 0.1
C[C@@H](C(=O)Nc1ccc(Oc2ccc(F)cn2)cn1)[C@H]1CCC(F)(F)[C@@H](c2ccc(=O)[nH]c2)C1 [Example 279, (R)-2-((1S,3R)-4,4-difluoro-3-(6-oxo-1,6-dihydropyridin-3-yl)cyclohexyl)-N-(5-((5-fluoropyridin-2-yl)oxy)pyridin-2-yl)propanamide]	≤ 0.01
